Measurements from patent publication US20140303386A1, “COMPOSITIONS AND METHODS FOR ENHANCING LIPID PRODUCTION IN […] INDUCTION OF CELL CYCLE ARREST” (RUTGERS, THE STATE UNIVERSITY OF NEW JERSEY, priority 2011, published 2014).

Key:
Assay type in all cases: cell-based
[1] = tested on: marine diatom Phaeodactylum tricornutum; test: Cell cycle analysis (propidium iodide DNA stain, flow cytometry); settings: higher dose of inhibitor
Procedure: (§1) Cultures were grown in continuous light at approximately 70 μmol quanta m^−2s^−1, in nutrient-replete conditions (F/2 media). […] The CDK inhibitor was applied when cells were growing exponentially (cell concentration was between 250,000-700,000 cells/ml).

[2] = tested on: marine diatom Phaeodactylum tricornutum; test: Fatty acid content / synthesis per cell
Procedure: as §1

[3] = tested on: marine diatom Phaeodactylum tricornutum; test: Protein synthesis in treated cells; settings: treated vs untreated cells
Procedure: as §1

[4] = tested on: marine diatom Phaeodactylum tricornutum; test: Photosynthetic health (Fv/Fm, chlorophyll per cell, a*); settings: treated vs untreated cells
Procedure: as §1

Nc1nc(OCC2CCCCC2)c2nc[nH]c2n1 [NU 2058, 6-(Cyclohexylmethoxy)-9H-purin-2-amine]
percentage of cells arrested in G1 [1]: higher percentage of cells arrested in G1 | increase in fatty acid synthesis compared to untreated cells ([2]; 7 μM, over a period of one day): 80% | fatty acid content per cell ([2]; higher dose of inhibitor): higher fatty acid content per cell | protein synthesis, lower than in untreated cells [3]: about 18% | photosynthetic capacity (Fv/Fm, chlorophyll per cell, a*) [4]: no appreciable differences
